Results published in patent publication US8372967B2, “Compounds and methods for modulating expression of GCCR” (Isis Pharmaceuticals, Inc., priority 2006, dated 2013).
Strand notation (5' to 3'): a small letter for the sugar, then the base; units joined by * are phosphorothioate-linked, units joined directly phosphodiester-linked; [ ] holds rarer units or linkages, { } end groups; capitals alone tell only the bases. e = 2'-O-(2-methoxyethyl) (MOE); [5mC] = 5-methylcytosine; d = 2'-deoxy (DNA)

Columns and labels:
rat DGAT2 mRNA = assay: Dose-dependent inhibition of DGAT2 in A10 cells (Tables 82, 83); type: cell-based
Description: Additional short antisense compounds targeted to DGAT2 mRNA were tested in vitro in a dose-response experiment. A10 cells were prepared as described above and treated with 6.25, 12.5, 25.0, 50.0, 100.0, and 200.0 nM short antisense compounds to determine if DGAT2 inhibition occurs in a dose-dependent manner. […] Results are presented as percent inhibition, relative to untreated control cells.
Additional short antisense compounds targeted to DGAT2 mRNA were tested in vitro. A10 cells were prepared as described above and treated with 0.62, 1.85, 5.56, 16.67, 50.0, and 150.0 nM short antisense compounds to determine if DGAT2 inhibition occurs in a dose-dependent manner. DGAT2 mRNA was measured using quantitative real-time PCR, as described herein. […] Results are presented as percent inhibition of rat DGAT2, relative to untreated control cells.

DGAT2 mRNA = assay: Antisense inhibition of DGAT2 in A10 cells, 75 nM (Table 81); type: cell-based, rat; conditions: approximately 24 hours
Description: Short antisense compounds targeted to a DGAT2 nucleic acid were tested for their effects on DGAT2 mRNA in vitro. Cultured A10 cells in a 96-well plate were treated with 75 nM of short antisense compound. After a treatment period of approximately 24 hours, RNA was isolated from the cells and DGAT2 mRNA levels were measured by quantitative real-time PCR, as described herein. DGAT2 mRNA levels were adjusted according to total RNA content as measured by RIBOGREEN®. Results are presented as percent inhibition of DGAT2, relative to untreated control cells in Table 81.

[1] = Triglyceride, cholesterol and glucose levels, pre-bleed and post-bleed, GCGR study (Table 34); type: in vivo, mouse; design: Triglyceride (TRIG) Pre-Bleed / Triglyceride (TRIG) Post-Bleed / Cholesterol (CHOL) Pre-Bleed / Cholesterol (CHOL) Post-Bleed / Glucose Pre-Bleed / Glucose Post-Bleed: unit not given here
Description: (§1) Eight-week old male C57/BL6 mice (Jackson Laboratory, Bar Harbor, Me.) were administered a single dose of GCGR oligonucleotide by intraperitoneal injection at a concentration of […]. Each dose group consisted of four animals. Shown in Table 31 are the sequences, motifs and conjugates of the GCGR antisense compounds used in this study. Bolded residues indicate 2′-O-methoxyethyl (2′-MOE) moieties. All compounds comprise phosphorothioate internucleoside linkages throughout and each cytosine is replaced with 5-methylcytosine. ISIS 386626, ISIS 386627 and ISIS 386628 further comprise a C16 conjugate group attached to the 2′-O position of the sugar via a diamide linkage (2′-OCH2C(═O)N(H)(CH2)4N(H)C(═O)—(CH2)15CH3). GCGR antisense compounds target published GCGR sequences, including Genbank® Accession No. BC031885.1 (SEQ ID NO: 7).
(§2) Mice were sacrificed 48 hours following injection to determine serum transaminase levels (Table 32); liver, white adipose tissue (WAT), spleen and kidney weight (Table 33); cholesterol, triglyceride and glucose levels (Table 34); GCGR mRNA levels (Tables 35-41); and full-length and total oligonucleotide concentration in liver and kidney (Table 42). Endpoints were assessed using methods described herein and well known to those of ordinary skill in the art. Data is included from a pre-treatment bleed (Pre-Bleed) and post-treatment bleed (Post-Bleed).

GCGR mRNA = GCGR mRNA levels in liver, C57/BL6 mice, single i.p. dose (Tables 35-41); type: in vivo, mouse
Description: Prior to quantitative PCR analysis, primer-probe sets specific to the target gene being measured were evaluated for their ability to be “multiplexed” with a GAPDH amplification reaction. After isolation the RNA is subjected to sequential reverse transcriptase (RT) reaction and real-time PCR, both of which are performed in the same well. RT and PCR reagents were obtained from Invitrogen Life Technologies (Carlsbad, Calif.). […] The RT reaction was carried out by incubation for 30 minutes at 48° C. Following a 10 minute incubation at 95° C. to activate the PLATIN 9M® Taq, 40 cycles of a two-step PCR protocol were carried out: 95° C. for 15 seconds (denaturation) followed by 60° C. for 1.5 minutes (annealing/extension).
170 μL of RiboGreen® working reagent (RiboGreen® reagent diluted 1:350 in 10 mM Tris-HCl, 1 mM EDTA, pH 7.5) was pipetted into a 96-well plate containing 30 μL purified cellular RNA. The plate was read in a CytoFluor® 4000 (PE Applied Biosystems) with excitation at 485 nm and emission at 530 nm.
as §1, §2
To determine whether the phenotypic changes shown above correlated with a decrease in GCGR mRNA, treated animals were evaluated for levels of target mRNA in liver by real time PCR according to methods described herein. Tables 35 to 41 show results from direct comparisons of the antisense compounds targeting GCGR nucleic acid for their effect on target expression. Results are expressed as percent of saline control.

[2] = ALT & AST levels and toxic effects, GCGR study (Table 32); type: in vivo, mouse; conditions: C57/BL6 mice, pre-treatment bleed
Description: as §1, §2

[3] = Organ weights: liver, WAT, spleen, kidney, GCGR study (Table 33); type: in vivo, mouse; conditions: 48 h
Description: as §1, §2

mouse SGLT2 mRNA = assay: Mouse SGLT2 mRNA in kidney, additional 1-10-1 and 2-8-2 MOE gapmers (Table 68); type: in vivo; conditions: Balb/c mouse kidney
Description: 1-10-1 and 2-8-2 MOE gapmer short antisense compounds were designed to target different regions of the mouse SGLT2 RNA but have complementarity across species. […] All cytidine residues are 5-methylcytidines.
The short antisense compounds were analyzed for their effect on mouse SGLT2 mRNA levels in vivo. Data was taken from three experiments in which male 6-week old Balb/c mice were dosed twice per week for three weeks with 0.5, 0.1, or 0.02 umol/kg of either a 1-10-1 or 2-8-2 MOE gapmer given by intraperitoneal injection. Mice were sacrificed 48 hours following last administration and evaluated for SGLT2 levels in kidney. Target levels were determined by RT, real-time PCR as described by other examples herein. PCR results were normalized to an internal ISIS control.

[4] = 6.25 mg/kg group, pre-treatment bleed
[5] = 6.25 mg/kg single i.p., post-treatment bleed
[6] = 12.5 mg/kg group, pre-treatment bleed
[7] = 12.5 mg/kg single i.p., post-treatment bleed
[8] = 25 mg/kg group, pre-treatment bleed
[9] = 25 mg/kg single i.p., post-treatment bleed
[10] = 50 mg/kg group, pre-treatment bleed
[11] = 50 mg/kg single i.p., post-treatment bleed

372508 (antisense eA*eG*eT*dT*d[5mC]*d[5mC]*dT*dG*dG*dT*dG*dG*dT*e[5mC]*eA*eG) [compound 372508]
percent inhibition of rat DGAT2 (rat DGAT2 mRNA; 0.62 nM (Table 83)): 0%
percent inhibition of rat DGAT2 (rat DGAT2 mRNA; 1.85 nM (Table 83)): 0%
percent inhibition of rat DGAT2 (rat DGAT2 mRNA; 5.56 nM (Table 83)): 6%
percent inhibition of rat DGAT2 (rat DGAT2 mRNA; 16.67 nM (Table 83)): 14%
percent inhibition of rat DGAT2 (rat DGAT2 mRNA; 50 nM (Table 83)): 39%
percent inhibition of rat DGAT2 (rat DGAT2 mRNA; 150 nM (Table 83)): 71%
% Control (DGAT2 mRNA): 35 % Control

372516 (antisense eT*eA*e[5mC]*dA*dG*dA*dA*dG*dG*d[5mC]*dA*d[5mC]*d[5mC]*e[5mC]*eA*eG) [compound 372516]
percent inhibition of rat DGAT2 (rat DGAT2 mRNA; 0.62 nM (Table 83)): 1%
percent inhibition of rat DGAT2 (rat DGAT2 mRNA; 1.85 nM (Table 83)): 10%
percent inhibition of rat DGAT2 (rat DGAT2 mRNA; 5.56 nM (Table 83)): 0%
percent inhibition of rat DGAT2 (rat DGAT2 mRNA; 16.67 nM (Table 83)): 4%
percent inhibition of rat DGAT2 (rat DGAT2 mRNA; 50 nM (Table 83)): 35%
percent inhibition of rat DGAT2 (rat DGAT2 mRNA; 150 nM (Table 83)): 81%
% Control (DGAT2 mRNA): 27 % Control

372569 (antisense e[5mC]*eA*dT*dG*dA*dG*dG*dA*dT*dG*dA*d[5mC]*eA*e[5mC]) [compound 372569]
% Control (DGAT2 mRNA): 104 % Control

386628 (antisense TGTCTTGCTGCTTT; chemistry not fully specified) [compound 386628]
Cholesterol (CHOL) Pre-Bleed [1, 4]: 83
Triglyceride (TRIG) Pre-Bleed [1, 4]: 117
Cholesterol (CHOL) Post-Bleed [1, 5]: 85
Triglyceride (TRIG) Post-Bleed [1, 5]: 121
Cholesterol (CHOL) Pre-Bleed [1, 6]: 90
Triglyceride (TRIG) Pre-Bleed [1, 6]: 90
Cholesterol (CHOL) Post-Bleed [1, 7]: 94
Glucose Post-Bleed [1, 7]: 240
Triglyceride (TRIG) Post-Bleed [1, 7]: 123
Cholesterol (CHOL) Pre-Bleed [1, 8]: 84
Glucose Pre-Bleed [1, 8]: 210
Triglyceride (TRIG) Pre-Bleed [1, 8]: 102
Cholesterol (CHOL) Post-Bleed [1, 9]: 85
Triglyceride (TRIG) Post-Bleed [1, 9]: 129
Cholesterol (CHOL) Pre-Bleed [1, 10]: 88
Triglyceride (TRIG) Pre-Bleed [1, 10]: 102
Cholesterol (CHOL) Post-Bleed [1, 11]: 95
Triglyceride (TRIG) Post-Bleed [1, 11]: 98
GCGR mRNA levels (GCGR mRNA; 6.25 mg/kg, Table 38 comparison ISIS 148364 & ISIS 386628): 77% of saline control
GCGR mRNA levels (GCGR mRNA; 6.25 mg/kg, Table 41 comparison ISIS 386628 & ISIS 386594): 97% of saline control
GCGR mRNA levels (GCGR mRNA; 12.5 mg/kg, Table 38 comparison ISIS 148364 & ISIS 386628): 53% of saline control
GCGR mRNA levels (GCGR mRNA; 12.5 mg/kg, Table 41 comparison ISIS 386628 & ISIS 386594): 38% of saline control
GCGR mRNA levels (GCGR mRNA; 25 mg/kg, Table 38 comparison ISIS 148364 & ISIS 386628): 18% of saline control
GCGR mRNA levels (GCGR mRNA; 25 mg/kg, Table 41 comparison ISIS 386628 & ISIS 386594): 13% of saline control
GCGR mRNA levels (GCGR mRNA; 50 mg/kg, Table 38 comparison ISIS 148364 & ISIS 386628): 2% of saline control
GCGR mRNA levels (GCGR mRNA; 50 mg/kg, Table 41 comparison ISIS 386628 & ISIS 386594): 4% of saline control
ALT Pre-Bleed ([2]; dose group 6.25 mg/kg): 22 IU/L
AST Pre-Bleed ([2]; dose group 6.25 mg/kg): 40 IU/L
ALT Pre-Bleed ([2]; dose group 12.5 mg/kg): 28 IU/L
AST Pre-Bleed ([2]; dose group 12.5 mg/kg): 42 IU/L
ALT Pre-Bleed ([2]; dose group 25 mg/kg): 24 IU/L
AST Pre-Bleed ([2]; dose group 25 mg/kg): 40 IU/L
ALT Pre-Bleed ([2]; dose group 50 mg/kg): 28 IU/L
AST Pre-Bleed ([2]; dose group 50 mg/kg): 44 IU/L
Organ Weights: Kidney ([3]; 6.25 mg/kg single i.p.): 102 % saline control
Organ Weights: Liver ([3]; 6.25 mg/kg single i.p.): 98 % saline control
Organ Weights: Spleen ([3]; 6.25 mg/kg single i.p.): 151 % saline control
Organ Weights: WAT ([3]; 6.25 mg/kg single i.p.): 106 % saline control
Organ Weights: Kidney ([3]; 12.5 mg/kg single i.p.): 99 % saline control
Organ Weights: Liver ([3]; 12.5 mg/kg single i.p.): 101 % saline control
Organ Weights: Spleen ([3]; 12.5 mg/kg single i.p.): 114 % saline control
Organ Weights: WAT ([3]; 12.5 mg/kg single i.p.): 111 % saline control
Organ Weights: Kidney ([3]; 25 mg/kg single i.p.): 109 % saline control
Organ Weights: Liver ([3]; 25 mg/kg single i.p.): 102 % saline control
Organ Weights: Spleen ([3]; 25 mg/kg single i.p.): 113 % saline control
Organ Weights: WAT ([3]; 25 mg/kg single i.p.): 97 % saline control
Organ Weights: Kidney ([3]; 50 mg/kg single i.p.): 99 % saline control
Organ Weights: Liver ([3]; 50 mg/kg single i.p.): 104 % saline control
Organ Weights: Spleen ([3]; 50 mg/kg single i.p.): 126 % saline control
Organ Weights: WAT ([3]; 50 mg/kg single i.p.): 100 % saline control

ISIS 388627 (eG*e[5mC]*dA*d[5mC]*dA*d[5mC]*dA*dG*d[5mC]*dT*eG*e[5mC])
% change in SGLT2 expression relative to saline (mouse SGLT2 mRNA; 0.02 umol/kg i.p. twice per week for three weeks): −38%
% change in SGLT2 expression relative to saline (mouse SGLT2 mRNA; 0.1 umol/kg i.p. twice per week for three weeks): −50%
% change in SGLT2 expression relative to saline (mouse SGLT2 mRNA; 0.5 umol/kg i.p. twice per week for three weeks): −65%
